Measurements taken from patent US5451582A, “Benzodiazepine derivatives, compositions containing them and their use in therapy” (Merck Sharp & Dohme Ltd., priority 1992, dated 1995).

What was measured:
CCK receptor (pancreas) = molecular target: T1, CCK receptor (pancreas) (Rattus norvegicus, UniProt P30551); assay: CCK Receptor Binding (Pancreas), inhibition of 125I-CCK-8 binding; set-up: species or system rat (male Sprague-Dawley); conditions: rat pancreas membranes; 50 pM 125I-CCK-8; pH 6.5; 25° C., 2 hours
T1 construct: The whole pancreas was dissected free of fat tissue and was homogenized; from tissue; host or cells: rat pancreas membranes (male Sprague-Dawley)
T1 sequence (P30551 1-444): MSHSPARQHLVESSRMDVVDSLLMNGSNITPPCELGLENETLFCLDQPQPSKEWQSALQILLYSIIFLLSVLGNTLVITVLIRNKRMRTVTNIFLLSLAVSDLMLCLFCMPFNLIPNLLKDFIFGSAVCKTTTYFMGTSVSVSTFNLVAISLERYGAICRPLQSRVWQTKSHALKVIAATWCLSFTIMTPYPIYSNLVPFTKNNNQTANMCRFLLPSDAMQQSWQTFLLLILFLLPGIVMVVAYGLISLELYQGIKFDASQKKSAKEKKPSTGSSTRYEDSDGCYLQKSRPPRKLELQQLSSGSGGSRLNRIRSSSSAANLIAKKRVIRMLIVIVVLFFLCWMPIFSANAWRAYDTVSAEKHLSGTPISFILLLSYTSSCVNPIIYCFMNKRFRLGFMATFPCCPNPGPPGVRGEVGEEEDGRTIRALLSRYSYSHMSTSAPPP
Procedure: 1. CCK Receptor Binding (Pancreas)
CCK-8 sulphated was radiolabelled with ^125 I-Bolton Hunter reagent (2000 Ci/mmole). Receptor binding was performed according to Chang and Lotti (Proc. Natl. Acad. Sci. 83, 4923-4926, 1986) with minor modifications.
Male Sprague-Dawley rats (150-200 g) were sacrificed by decapitation. The whole pancreas was dissected free of fat tissue and was homogenized in 25 volumes of ice-cold 10 mM N-2-hydroxyethyl-piperazine-N'-2-ethane sulphonic acid (HEPES) buffer with 0.1% soya bean trypsin inhibitor (pH 7.4 at 25° C.) with a Kinematica Polytron. The homogenates were centrifuged at 47,800 g for 10 min. Pellets were resuspended in 10 volumes of binding assay buffer (20 mM (HEPES)), 1 mM ethylene glycol-bis-(β-aminoethylether-N,N'-tetraacetic acid) (EGTA), 5 mM MgCl2, 150 mM NaCl, bacitracin 0.25 ml/ml, soya bean trypsin inhibitor 0.1 ml/ml, and bovine serum albumin 2 ml/ml pH 6.5 at 25° C.) using a Teflon (trademark) homogenizer, 15 strokes at 500 rpm. The homogenate was further diluted in binding assay buffer to give a final concentration of 0.5 ml original wet weight/1 ml buffer. For the binding assay, 50 μl of buffer (for total binding) or unlabelled CCK-8 sulphated to give a final concentration of 1 μM (for nonspecific binding) or the compounds of Formula I (for determination of inhibition of ^125 I-CCK-8 binding) and 50 μl of 500 pM ^125 I-CCK-8 (i.e. 50 pM final concentration) were added to 400 μl of the membrane suspensions in microfuge tubes. All assays were run in duplicate. The reaction mixtures were incubated at 25° C. for 2 hours and the reaction terminated by rapid filtration (Brandell 24 well cell harvester) over Whatman GF/C filters, washing 3×4 mls with ice-cold 100 Mm NaCl. The radioactivity on the filters was counted with a LKB gamma counter.
The preferred compounds of Formula I are those which produced dose-dependent inhibition of specific ^125 I-CCK-8 binding as defined as the difference between total and non-specific (i.e. in the presence of 1 μM CCK) binding. […]

CCK receptor (brain) = molecular target: T2, CCK receptor (brain) (Cavia porcellus, UniProt H0VZC5); assay: CCK Receptor Binding (Brain), inhibition of 125I-CCK-8 binding; set-up: species or system guinea pig (male Hartley); conditions: guinea pig cortex membranes; 50 pM 125I-CCK-8; pH 6.5; 25° C., 2 hours
T2 construct: the cortex was removed and homogenized in 25 mL ice-cold 0.32M sucrose; from tissue; host or cells: guinea pig cerebral cortex P2 membranes (male Hartley)
T2 sequence (H0VZC5 1-426): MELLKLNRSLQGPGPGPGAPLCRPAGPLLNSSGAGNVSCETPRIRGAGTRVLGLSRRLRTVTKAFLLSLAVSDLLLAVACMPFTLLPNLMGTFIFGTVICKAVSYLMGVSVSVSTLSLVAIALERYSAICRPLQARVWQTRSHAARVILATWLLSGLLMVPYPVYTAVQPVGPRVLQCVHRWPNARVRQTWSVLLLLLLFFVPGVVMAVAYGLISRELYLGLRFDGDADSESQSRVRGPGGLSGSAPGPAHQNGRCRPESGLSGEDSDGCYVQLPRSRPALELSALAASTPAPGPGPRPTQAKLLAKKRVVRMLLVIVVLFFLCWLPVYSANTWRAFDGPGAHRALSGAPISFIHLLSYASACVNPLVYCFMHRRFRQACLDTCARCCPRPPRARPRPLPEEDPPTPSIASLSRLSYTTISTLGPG
Procedure: 2. CCK Receptor Binding (Brain)
CCK-8 sulphated was radiolabelled and the binding was performed according to the description for the pancreas method with minor modifications.
Male Hartley guinea pigs (300-500 g) were sacrificed by decapitation and the cortex was removed and homogenized in 25 mL ice-cold 0.32M sucrose. The homogenates were centrifuged at 1000 g for 10 minutes and the resulting supernatant was recentrifuged at 20,000 g for 20 minutes. The P2 pellet was resuspended in binding assay buffer (20 mM HEPES, 5 mMMgCl2, 0.25 ml/ml bacitracin, 1 mM EGTA pH 6.5 at 25° C.), using a Teflon (trademark) homogenizer (5 strokes at 500 rpm) to give a final concentration of […] original wet weight/1.2 ml buffer. For the binding assay, 50 μl of buffer (for total binding) or unlabelled CCK-8 sulphated to give a final concentration of 1 μM (for nonspecific binding) or the compounds of Formula I (for determination of inhibition of ^125 I-CCK-8 binding) and 50 μl of 500 pM ^125 I-CCK-8 (i.e. final concentration of 50 pM) were added to 400 μl of the membrane suspensions in microfuge tubes. All assays were run in duplicate. The reaction mixtures were incubated at 25° C. for 2 hours and then the reaction was terminated by rapid filtration (Brandell 24 well cell harvester) on Whatman GF/C filters with 3×5 ml washes of cold 100 mM NaCl. The radioactivity on the filters was counted with a LKB gamma counter.
The preferred compounds of Formula I are those which produced dose-dependent inhibition of specific ^125 I-CCK-8 binding as defined as the difference between total and non-specific (i.e. in the presence of 1 μM CCK) binding.
Drug displacement studies were performed with at least 10 concentrations of compounds of Formula I and the IC50 values were determined by regression analysis IC50 refers to the concentration of the compound required to inhibit 50% of specific binding of ^125 I-CCK-8.

Row | SMILES | IC50 (CCK receptor (pancreas)) | IC50 (CCK receptor (brain))
1 | CC1=NC(NC(=O)Nc2cccc(-c3nn[nH]n3)c2)C(=O)N(C)c2ccccc21 (racemic) [Example 1, N-[3(R,S)-2,3-Dihydro-1,5-dimethyl-2-oxo-1H-1,4-benzodiazepin-3-yl]N'-[3-tetrazol-5-ylphenyl]urea] | > 3000 nM | 104 nM
2 | CC(C)CN1C(=O)C(NC(=O)Nc2cccc(-c3nn[nH]n3)c2)N=C(C(C)C)c2ccccc21 (racemic) [Example 2, N-[3(R,S)-2,3-Dihydro-1-(2-methylpropyl)-2-oxo-5-(2-propyl) -1H-1,4-benzodiazepin-3-yl]N'-[3-tetrazol-5-ylphenyl]urea] | 600 nM | 17 nM
3 | CC(C)CN1C(=O)C(NC(=O)Nc2cccc(C(=O)NS(C)(=O)=O)c2)N=C(C(C)(C)C)c2ccccc21 (racemic) [Example 3, N-[3(R,S)-2,3-Dihydro-5-(1,1-dimethylethyl)-1-(2-methylpropyl) -2-oxo-1H-1,4-benzodiazepin-3yl]N'-(3-(methylsulphonylaminocarbonyl)phenyl]urea] | 612 nM | 32 nM
